Laboratory results as given in patent US12396961B2, “Compounds and compositions for intracellular delivery of agents” (ModernaTX, Inc., priority 2015, dated 2025).

Legend:
[1] = Particle size and polydispersity index (Zetasizer Nano ZS); type: physicochemical; conditions: Table 1; for PDI: DOPE 40:20:38.5:1.5, Luc mRNA
Text: Nanoparticle compositions may be characterized by a variety of methods. For example, microscopy (e.g., transmission electron microscopy or scanning electron microscopy) may be used to examine the morphology and size distribution of a nanoparticle composition. Dynamic light scattering or potentiometry (e.g., potentiometric titrations) may be used to measure zeta potentials. Dynamic light scattering may also be utilized to determine particle sizes. Instruments such as the Zetasizer Nano ZS (Malvern Instruments Ltd, Malvern, Worcestershire, UK) may also be used to measure multiple characteristics of a nanoparticle composition, such as particle size, polydispersity index, and zeta potential.
A Zetasizer Nano ZS (Malvern Instruments Ltd, Malvern, Worcestershire, UK) can be used to determine the particle size, the polydispersity index (PDI) and the zeta potential of the nanoparticle compositions in 1×PBS in determining particle size and 15 mM PBS in determining zeta potential.

[2] = test system: luciferase (Luc) mRNA expression; test: Luc expression (AUC) in CD-1 mice relative to MC3; type: in vivo; conditions: for Lipid/MC3 Luc CD-1 (mice): Luc expression relative to MC3, CD-1 mice; for Liver/Spleen Ratio / Lipid/MC3 AUC: Table 7c; for Lipid/MC3 AUC: AUC relative to MC3
Description: FIG. 15 is a graph summarizing luciferase expression levels at 6 h after administration of nanoparticle compositions containing compounds of the disclosure to CD-1 mice at a dose of 0.5 mpk. Total light flux values were acquired via body luminescent imaging (BLI) 6 h after administration. In this Figure, the numbers 1-7 and 10 refer to the compositions containing Compounds 4-10 and MC3 respectively.
In contrast, hEPO expression in rats induced by administration of nanoparticle composition including compound according to one of formulae (I), (Ia1)-(Ia6), (Ib), (II), (IIa), (III), and (IIIa) was substantially lower than that measured for MC3. […] Table 7c and 7d show additional protein expressions and clearance data from compositions with various compounds disclosed herein as compared to with MC3.

[3] = test system: hEPO mRNA expression; test: Expression of hEPO in mice (CD-1); type: in vivo, CD-1 mice; conditions: Table 7e; hEPO expression, CD-1 mice, 0.5 mpk
Text: FIG. 12 is a set of graphs illustrating hEPO expression levels in CD-1 mice dosed with compounds of the disclosure, compared to MC3. PBS is used as control. […] In graphs A-C numbers 1-14 refer to compositions containing the following: 1: Compound 73, 2: Compound 80, 3: Compound 70; 4: Compound 81; 5: Compound 69; 6: Compound 82; 7: Compound 83; 8: Compound 62; 9: Compound 84; 10: Compound 85; 11: Compound 86; 12: Compound 87; 13: MC3; 14: PBS.
FIG. 13 is a graph showing hEPO levels (pg/mL) in CD-1 mice up to −25 h after administration of a nanoparticle composition containing compounds of the disclosure, compared to a composition containing MC3. Numbers 1-13 refer to compositions containing the following: 1: Compound 73, 2: Compound 80, 3: Compound 70; 4: Compound 81; 5: Compound 69; 6: Compound 82; 7: Compound 83; 8: Compound 62; 9: Compound 84; 10: Compound 85; 11: Compound 86; 12: Compound 87; 13: MC3. […]

Row | SMILES | PDI [1] | Lipid/MC3 Luc CD-1 (mice) [2] | Lipid/MC3 AUC [3] | also measured
1 | CCCCCCCCCN(CCCCCCCCC)CCN(CCCCCCCCC)CC(=O)N1CC2CC1CN2C(=O)CN(CCCCCCCCC)CCCCCCCCC (centres unmarked) [Compound 42, 2-(Dinonylamino)-1-(5-(N-(2-(dinonylamino)ethyl)-N-nonylglycyl)-2,5-diazabicyclo[2.2.1]heptan-2-yl)ethan-1-one] | 0.190 | 3.99 | – | –
2 | CCCCCCCCCCCCN(CCCCCCCCCCCC)CCN(CCCCCCCCCCCC)CC(=O)N1CC2CC1CN2C(=O)CN(CCCCCCCCC)CCCCCCCCC (centres unmarked) [Compound 43, 2-((2-(Didodecylamino)ethyl)(dodecyl)amino)-1-(5-(dinonylglycyl)-2,5-diazabicyclo[2.2.1]heptan-2-yl)ethan-1-one] | 0.220 | 0.34 | – | Size (nm) ([1]; lipid:DOPE:Chol:PEG-DMG 40:20:38.5:1.5, Luc mRNA, MC3 standard formulation): 99.0 nm
3 | CCCCCCCCCN(CCCCCCCCC)CCN(CCCCCCCCC)CC(=O)N1CCN(C(=O)CN(CCCCCCCCC)CCCCCCCC(=O)OC)CC1 [Compound 44, Methyl 8-((2-(4-(N-(2-(dinonylamino)ethyl)-N-nonylglycyl)piperazin-1-yl)-2-oxoethyl)(nonyl)amino)octanoate] | 0.190 | 0.82 | – | –
4 | CCCCCCCCCN(CCCCCCCC(=O)OC)CCN(CCCCCCCCC)CC(=O)N1CCN(C(=O)CN(CCCCCCCCC)CCCCCCCCC)CC1 [Compound 46, Methyl 8-((2-((2-(4-(dinonylglycyl)piperazin-1-yl)-2-oxoethyl)(nonyl)amino)ethyl)(nonyl)amino)octanoate] | 0.160 | 0.46 | – | –
5 | CCCCCCCCCN(CCCCCCCCC)CCN(CCCCCCCC(=O)OC)CC(=O)N1CCN(C(=O)CN(CCCCCCCCC)CCCCCCCCC)CC1 [Compound 47, Methyl 8-((2-(dinonylamino)ethyl)(2-(4-(dinonylglycyl)piperazin-1-yl)-2-oxoethyl)amino)octanoate] | 0.180 | 0.22 | – | –
6 | CCCCCCCCCN(CCCCCCCC(=O)OC)CCN(CCCCCCCC(=O)OC)CC(=O)N1CCN(C(=O)CN(CCCCCCCCC)CCCCCCCCC)CC1 [Compound 48, Methyl 8-((2-(4-(dinonylglycyl)piperazin-1-yl)-2-oxoethyl)(2-((8-methoxy-8-oxooctyl)(nonyl)amino)ethyl)amino)octanoate] | 0.099 | 0.01 | – | –
7 | CCCCCCCCCN(CCCCCCCCC)CCN(CCCCCCCCC)CCC1CCN(C(=O)CN(CCCCCCCCC)CCCCCCCCC)CC1 [Compound 50, 2-(Dinonylamino)-1-(4-(2-((2-(dinonylamino)ethyl)(nonyl)amino)ethyl)piperidin-1-yl)ethan-1-one] | 0.190 | 0.01 | – | –
8 | CCCCCCCCCCCCCCN(CCCCCCCCCCCCCC)CC(=O)N1CCN(C(=O)CN(CCCCCCCCC)CCN(CCCCCCCCC)CCCCCCCCC)CC1 [Compound 51, 2-((2-(Dinonylamino)ethyl)(nonyl)amino)-1-(4-(ditetradecylglycyl)piperazin-1-yl)ethan-1-one] | 0.190 | 5.22 | – | –
9 | CCCCCCCCCN(CCCCCCCCC)CCC(=O)N1CCN(C(=O)CCN(CCCCCCCCC)CCN(CCCCCCCCC)CCCCCCCCC)CC1 [Compound 52, 3-(Dinonylamino)-1-(4-(3-((2-(dinonylamino)ethyl)(nonyl)amino)propanoyl)piperazin-1-yl)propan-1-one] | 0.100 | 7.46 | – | –
10 | CCCCCCCCCN(CCCCCCCCC)CCN(CCCCCCCCC)CC(=O)N1CCN(C(=O)CN(CCCCCCCCC)CCCCCC(=O)OCCC)CC1 [Compound 54, Propyl 6-((2-(4-(N-(2-(dinonylamino)ethyl)-N-nonylglycyl)piperazin-1-yl)-2-oxoethyl)(nonyl)amino)hexanoate] | – | – | – | Liver/Spleen Ratio [2]: 32; Lipid/MC3 AUC [2]: 0.13
11 | CCCCCCCCCN(CCCCCC(=O)OCCC)CCC1CCN(C(=O)CN(CCCCCCCCC)CCN(CCCCCCCCC)CCCCCCCCC)CC1 [Compound 59, Propyl 6-((2-(1-(N-(2-(dinonylamino)ethyl)-N-nonylglycyl)piperidin-4-yl)ethyl)(nonyl)amino)hexanoate] | – | – | – | Liver/Spleen Ratio [2]: 5; Lipid/MC3 AUC [2]: 0.84
12 | CCCCCCCCCN(CCCCC(=O)OCCCC)CCC1CCN(C(=O)CN(CCCCCCCCC)CCN(CCCCCCCCC)CCCCCCCCC)CC1 [Compound 60, Butyl 5-((2-(1-(N-(2-(dinonylamino)ethyl)-N-nonylglycyl)piperidin-4-yl)ethyl)(nonyl)amino)pentanoate] | – | – | – | Liver/Spleen Ratio [2]: 15; Lipid/MC3 AUC [2]: 2.00
13 | CCCCCCCCCN(CCCC(=O)OCCCCC)CCC(=O)N1CCN(C(=O)CCN(CCCCCCCCC)CCN(CCCCCCCCC)CCCCCCCCC)CC1 [Compound 62, Pentyl 4-((3-(4-(3-((2-(dinonylamino)ethyl)(nonyl)amino)propanoyl)piperazin-1-yl)-3-oxopropyl)(nonyl)amino)butanoate] | – | – | 0.97 | –
14 | CCCCCCCCCN(CCCCCCCCC)CCC1CCN(C(=O)CN(CCCCCCCCC)CCN(CCCCCCCCC)CCCCCCCCC)C1 (centres unmarked) [Compound 69, 2-((2-(Dinonylamino)ethyl)(nonyl)amino)-1-(3-(2-(dinonylamino)ethyl)pyrrolidin-1-yl)ethan-1-one] | – | – | 6.52 | –
15 | CCCCCCCCCN(CCCCCCCCC)CCN(CCCCCCCCC)CC(=O)N1CCC(CN(CCCCCCCCC)CCCCCCCCC)C1 (centres unmarked) [Compound 70, 2-((2-(Dinonylamino)ethyl)(nonyl)amino)-1-(3-((dinonylamino)methyl)pyrrolidin-1-yl)ethan-1-one] | – | – | 1.77 | –
16 | CCCCCCCCCN(CCCC(=O)OCCCCC)CCN(CCCCCCCCC)CC(=O)N1CCN(C(=O)CN(CCCCCCCCC)CCCC(=O)OCCCCC)CC1 [Compound 71, Pentyl 4-(nonyl(2-(4-(N-nonyl-N-(2-(nonyl(4-oxo-4-(pentyloxy)butyl)amino)ethyl)glycyl)piperazin-1-yl)-2-oxoethyl)amino)butanoate] | – | – | – | Liver/Spleen Ratio [2]: 25; Lipid/MC3 AUC [2]: 1.25
17 | CCCCCCCCCN(CCCCCCCCC)CCC1CCCN(C(=O)CN(CCCCCCCCC)CCN(CCCCCCCCC)CCCCCCCCC)C1 (centres unmarked) [Compound 73, 2-((2-(Dinonylamino)ethyl)(nonyl)amino)-1-(3-(2-(dinonylamino)ethyl)piperidin-1-yl)ethan-1-one] | – | – | 3.93 | –
18 | CCCCCCCCCN(CCCC(=O)OCCCCC)CCC1CCCN(C(=O)CN(CCCCCCCCC)CCN(CCCCCCCCC)CCCCCCCCC)C1 (centres unmarked) [Compound 80, Pentyl 4-((2-(1-(N-(2-(dinonylamino)ethyl)-N-nonylglycyl)piperidin-3-yl)ethyl)(nonyl)amino)butanoate] | – | – | 1.74 | –
19 | CCCCCCCCCN(CCCC(=O)OCCCCC)CCC1CCN(C(=O)CN(CCCCCCCCC)CCN(CCCCCCCCC)CCCCCCCCC)C1 (centres unmarked) [Compound 81, Pentyl 4-((2-(1-(N-(2-(dinonylamino)ethyl)-N-nonylglycyl)pyrrolidin-3-yl)ethyl)(nonyl)amino)butanoate] | – | – | 3.01 | –
20 | CCCCCCCCCN(CCCCCCCCC)CCN(CCCCCCCCC)CC(=O)N1CCC(CN(CCCCCCCCC)CCCC(=O)OCCCCC)C1 (centres unmarked) [Compound 82, Pentyl 4-(((1-(N-(2-(dinonylamino)ethyl)-N-nonylglycyl)pyrrolidin-3-yl)methyl)(nonyl)amino)butanoate] | – | – | 3.62 | –
21 | CCCCCCCCCN(CCCC(=O)OCCCCC)CCC1CCN(C(=O)CN(CCCCCCCCC)CCN(CCCCCCCCC)CCCCCCCCC)CC1 [Compound 83, Pentyl 4-((2-(1-(N-(2-(dinonylamino)ethyl)-N-nonylglycyl)piperidin-4-yl)ethyl)(nonyl)amino)butanoate] | – | – | 1.46 | –
